Patent US7666639B2, “Plant deoxyribonucleoside kinase enzymes and their use” (priority 2002, dated 2010)

Legend:
[1] = tested on: KY895 cells transformed with pGEX-2T-TOM-ΔNdCK/dGKΔC; test: LD100 for growth of transformed KY895 on nucleoside analog plates, pGEX-2T-TOM-ΔNdCK/dGKΔC; format: cell-based, E. coli; settings: transformant pGEX-2T-TOM-ΔNdCK/dGKΔC; M9 plates, 24 hours at 37° C.
Method: (§1) Deoxyribonucleoside kinases are of interest as suicide-genes to be used in gene-mediated therapy of cancer or viral infections. In this example the potential of the plant kinases of the invention to convert different nucleoside analogs are compared to that of the human Herpes simplex virus type 1 thymidine kinase (HSV1-TK) in a bacterial test system.
(§2) The experiment was carried out essentially as described by Knecht et al. [Knecht W, Munch-Petersen B and Piskur J: Identification of residues involved in the specificity and regulation of the highly efficient multisubstrate deoxyribonucleoside kinase from Drosophila melanogaster; J. Mol. Biol. 2000 301 827-837]. Briefly, overnight cultures of transformed KY895 were diluted 200-filed in 10% glyercol and 2 μl drops of the dilutions were spotted on M9 minimal medium plates [Ausubel F, Brent R, Kingston R E, Moore D D, Seidman J G, Smith J A & Struhl K (Eds.): Short protocols in molecular biology; 3rd edition (1995) pp. 1-2, Wiley, USA] supplemented with 0.2% glucose, 40 μg/ml isoleucine, 40 μg/ml valine, 100 μg/ml ampicillin and with or without nucleoside analogs. Growth was inspected visually after 24 hours of incubation at 37° C.

[2] = tested on: breast MCF-7 cells transduced with PZG190 (AtdCGK); test: Cell proliferation assay - cytotoxicity (XTT), MCF-7 transduced with PZG190; format: cell-based, Human
Method: (§3) Two constructs were obtained: AtdCGK (PZG190) and TomdCGK (PZG193). LCXSN alone was used as a control.
(§4) The virus containing medium was subsequently used to transduce the cancer cell lines with a MOI of 5.
(§5) Human breast MCF-7 (ATCC HTB-22) and Glioblastoma U-118-MG (ATCC HTB-15) cancer cells were purchased from the American Type Culture Collection. Cells were cultured in RPMI, E-MEM or D-MEM (Cambrex, Bio Whittaker Cat. No. 12-115-F, 12-611 and 12-741-F) with 10% (v/v) Australian originated fetal calf serum (Cambrex, Bio Whittaker Cat. No. 12-611) and 1 ml/l of Gentamicin (Cambrex, Bio Whittaker Cat. No. 17-518). Cells were grown at 37° C. in a humidified incubator with a gas phase of 5% CO2. […]
(§6) Cells were plated at densities range of 1.500-3.500 cells/well in 96-well plates coated with Poly-L-lysine (Sigma Cat. No. P6282) Gemcitabine (obtained from Orifarm A/S—DK) was added after 24 hours of incubation at 37° C., 5% CO2, and the medium containing the nucleoside analog. […] The IC50 value of the investigated drug/compound was calculated as the mean of these experiments using SigmaPlot®) (SPSS Science, Dyrberg Traiding—DK).
(§7) The sensitivity of the untransduced cells, and of the cells transduced with either the retroviral vector alone ore the vector containing plant kinases for Gemcitabine was determined.
(§8) The cytotoxicity (IC50 value) was determined after 96-120 hours of drug exposure.

[3] = tested on: cells transduced with the pLCXSN vector alone; test: Cell proliferation assay - cytotoxicity (XTT), cells transduced with pLCXSN vector alone; format: cell-based, Human; settings: pLCXSN vector alone versus parental
Method: as §3, §4, §5, §6, §7, §8

[4] = tested on: breast MCF-7 cells transduced with PZG193 (TomdCGK); test: Cell proliferation assay - cytotoxicity (XTT), MCF-7 transduced with PZG193; format: cell-based, Human
Method: as §3, §4, §5, §6, §7, §8

[5] = tested on: Glioblastoma U-118-MG cells, parental; test: Cell proliferation assay - cytotoxicity (XTT), U-118-MG parental; format: cell-based; settings: Homo sapiens, 96-120 hours of drug exposure
Method: (§9) Human breast MCF-7 (ATCC HTB-22) and Glioblastoma U-118-MG (ATCC HTB-15) cancer cells were purchased from the American Type Culture Collection. Cells were cultured in RPMI, E-MEM or D-MEM (Cambrex, Bio Whittaker Cat. No. 12-115-F, 12-611 and 12-741-F) with 10% (v/v) Australian originated fetal calf serum (Cambrex, Bio Whittaker Cat. No. 12-611) and 1 ml/l of Gentamicin (Cambrex, Bio Whittaker Cat. No. 17-518). Cells were grown at 37° C. in a humidified incubator with a gas phase of 5% CO2.
as §6, with “analog. Each experiment was performed in four replicates. Cell survival was assayed after 96-120 hours of drug exposure, by XTT cell proliferation kit (X) kit II, Roche Cat. No. 1 465 015).” for “analog.”
as §7, §8

[6] = tested on: KY895 cells transformed with pGEX-2T-TOM-ΔNdCK/dGK; test: LD100 for growth of transformed KY895 on nucleoside analog plates, pGEX-2T-TOM-ΔNdCK/dGK; format: cell-based, E. coli
Method: as §1, §2

[7] = tested on: KY895 cells transformed with pGEX-2T-AT-dCK/dGK; test: LD100 for growth of transformed KY895 on nucleoside analog plates, pGEX-2T-AT-dCK/dGK; format: cell-based, E. coli
Method: as §1, §2

[8] = tested on: KY895 cells transformed with pGEX-2T; test: LD100 for growth of transformed KY895 on nucleoside analog plates, pGEX-2T; format: cell-based, E. coli; settings: transformant pGEX-2T; M9 plates, 24 hours at 37° C.
Method: as §1, §2

[9] = tested on: KY895 cells transformed with pGEX-2T-HSV-TK; test: LD100 for growth of transformed KY895 on nucleoside analog plates, pGEX-2T-HSV-TK; format: cell-based, E. coli; settings: transformant pGEX-2T-HSV-TK; M9 plates, 24 hours at 37° C.
Method: as §1, §2

[10] = tested on: Glioblastoma U-118-MG cells transduced with PZG190 (AtdCGK); test: Cell proliferation assay - cytotoxicity (XTT), U-118-MG transduced with PZG190; format: cell-based; settings: Homo sapiens; U-118-MG PZG190; 96-120 hours of drug exposure
Method: as §3, §4, §5, §6, §7, §8

[11] = tested on: KY895 cells transformed with pGEX-2T-TOM-dCK/dGKΔC; test: LD100 for growth of transformed KY895 on nucleoside analog plates, pGEX-2T-TOM-dCK/dGKΔC; format: cell-based, E. coli; settings: transformant pGEX-2T-TOM-dCK/dGKΔC; M9 plates, 24 hours at 37° C.
Method: as §1, §2

[12] = tested on: breast MCF-7 cells, parental; test: Cell proliferation assay - cytotoxicity (XTT), MCF-7 parental; format: cell-based; settings: Homo sapiens, MCF7, 96-120 hours of drug exposure
Method: as §9
as §6, with “analog. Each experiment was performed in four replicates. Cell survival was assayed after 96-120 hours of drug exposure, by XTT cell proliferation kit (X) kit II, Roche Cat. No. 1 465 015).” for “analog.”
as §7, §8

[13] = tested on: KY895 cells transformed with pGEX-2T-TOM-dCK/dGK; test: LD100 for growth of transformed KY895 on nucleoside analog plates, pGEX-2T-TOM-dCK/dGK; format: cell-based, E. coli
Method: as §1, §2

Nc1ccn([C@@H]2O[C@H](CO)[C@@H](O)C2(F)F)c(=O)n1 [dFdC, 2′,2′-difluorodeoxycytidine]
LD100 for growth of transformed KY895 cells [1]: 100 µM | IC50 ([2]; Homo sapiens, MCF7, MCF-7 PZG190, 96-120 hours of drug exposure): 500 nM | Sensitivity factor ([2]; MCF-7 PZG190 compared to the parental cell line): 6-fold | difference in sensitivity between the parental cell line and cells transduced with the pLCXSN vector alone [3]: less than 1 fold | IC50 ([4]; Homo sapiens, MCF7, MCF-7 PZG193, 96-120 hours of drug exposure): 402 nM | Sensitivity factor ([4]; MCF-7 PZG193 compared to the parental cell line): 8-fold | IC50 [5]: 6.2 nM | killed at fold lower concentrations than cells transformed with pGEX-2T-HSV-TK or pGEX-2T ([6]; KY895 with expression plasmid for TOM-ΔNdCK/dGK): 10 fold | LD100 for growth of transformed KY895 cells ([6]; transformant pGEX-2T-TOM-ΔNdCK/dGK, M9 plates, 24 hours at 37° C.): 10 µM | LD100 fold lower than that of HSV1-TK ([7]; KY895 with AT-dCK/dGK versus HSV1-TK): 10000 fold | LD100 for growth of transformed KY895 cells ([7]; transformant pGEX-2T-AT-dCK/dGK, M9 plates, 24 hours at 37° C.): 0.01 µM | LD100 for growth of transformed KY895 cells [8]: 100 µM | LD100 for growth of transformed KY895 cells [9]: 100 µM | IC50 [10]: 0.3 nM | LD100 for growth of transformed KY895 cells [11]: 100 µM | IC50 [12]: 3120 nM | killed at fold lower concentrations than cells transformed with pGEX-2T-HSV-TK or pGEX-2T ([13]; KY895 with expression plasmid for TOM-dCK/dGK): 10 fold | LD100 for growth of transformed KY895 cells ([13]; transformant pGEX-2T-TOM-dCK/dGK, M9 plates, 24 hours at 37° C.): 10 µM
